Literature values as cited in US12303531B2, “Molecular complex assembly particles comprising bis-R1,R2-dithiocarbamate-metal complex and a ligand, method of preparation and use thereof” (priority 2018, dated 2025).

CCN(CC)C(=S)[S-].CCN(CC)C(=S)[S-].[Cu+2] [bis(diethyldithiocarbamate)copper(II)]
solubility constant in water: in the range of nanograms per litre
